Results published in patent publication US20070149552A1, “Lyophilized compositions of a triazolopyrimidine compound” (Wyeth, priority 2005, published 2007).

Tests used:
[1] = tested on: xenograft models of human non-small cell lung cancer (NSCLC), colon cancer, breast cancer, melanoma, and glioblastoma; settings: including models resistant to taxanes or other microtubule-active compounds; cited from earlier work
Solubility of the salt = type: physicochemical

In the case of `CNCCCOc1cc(F)c(-c2c(Cl)nc3ncnn3c2N[C@@H](C)C(F)(F)F)c(F)c1` [Compound Ia, 5-chloro-6-{2,6-difluoro-4-[3-(methylamino)propoxy]phenyl}-N-[(1S)-2,2,2-trifluoro-1-methylethyl][1,2,4]triazolo[1,5-a]pyrimidin-7-amine], the antitumor activity [1] is given as “broad antitumor activity”.

For `CNCCCOc1cc(F)c(-c2c(Cl)nc3ncnn3c2N[C@@H](C)C(F)(F)F)c(F)c1.O=C(O)CCC(=O)O` [succinate dihydrate salt of Compound Ia], the solubility (Solubility of the salt) was “reasonable solubility”.
